Legend:
[1] = target: T1, Human Factor XIIa (hFXIIa) (Homo sapiens, UniProt P00748); assay: Determination of Human Factor XIIa (hFXIIa) inhibition, fluorogenic substrate IC50 assay; type: biochemical; details: fluorogenic substrate H-DPro-Phe-Arg-AFC at Km, 25° C., read-out: Human FXIIa IC50
T1 construct: purchased Enzyme Research Laboratories
T1 sequence (P00748 373-615 limits assumed): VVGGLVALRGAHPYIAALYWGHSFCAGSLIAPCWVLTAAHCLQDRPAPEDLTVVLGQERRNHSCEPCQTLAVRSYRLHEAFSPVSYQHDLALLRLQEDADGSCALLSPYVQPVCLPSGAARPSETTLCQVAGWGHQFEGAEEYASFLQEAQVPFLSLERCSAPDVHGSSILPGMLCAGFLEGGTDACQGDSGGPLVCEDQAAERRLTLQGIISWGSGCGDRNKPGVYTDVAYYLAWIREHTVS
T1 sequence (P00748 20-372 partner limits assumed): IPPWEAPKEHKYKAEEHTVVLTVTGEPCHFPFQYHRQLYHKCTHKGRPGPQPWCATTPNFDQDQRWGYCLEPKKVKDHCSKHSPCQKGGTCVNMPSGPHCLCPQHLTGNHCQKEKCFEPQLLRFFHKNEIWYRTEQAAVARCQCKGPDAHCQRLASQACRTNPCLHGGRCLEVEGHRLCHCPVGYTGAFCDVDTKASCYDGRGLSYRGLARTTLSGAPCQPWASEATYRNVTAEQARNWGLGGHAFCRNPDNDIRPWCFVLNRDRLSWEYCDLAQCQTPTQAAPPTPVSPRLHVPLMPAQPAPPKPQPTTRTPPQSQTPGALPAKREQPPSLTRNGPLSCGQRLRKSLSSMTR
Experimental: Determination of Human Factor XIIa (hFXIIa) inhibition
The Km for the cleavage of the substrate by hFXIIa was determined by standard transformation of the Michaelis-Menten equation, with subsequent inhibition assays performed at substrate Km concentration.

FXa = FXa (Homo sapiens, UniProt P00742); assay: Related protease inhibition: FXa, fluorogenic substrate; type: biochemical; details: fluorogenic substrate at Km, 25° C.; H1-H3 = % activity at 40 μM
FXa, sequence (P00742 235-488 limits assumed): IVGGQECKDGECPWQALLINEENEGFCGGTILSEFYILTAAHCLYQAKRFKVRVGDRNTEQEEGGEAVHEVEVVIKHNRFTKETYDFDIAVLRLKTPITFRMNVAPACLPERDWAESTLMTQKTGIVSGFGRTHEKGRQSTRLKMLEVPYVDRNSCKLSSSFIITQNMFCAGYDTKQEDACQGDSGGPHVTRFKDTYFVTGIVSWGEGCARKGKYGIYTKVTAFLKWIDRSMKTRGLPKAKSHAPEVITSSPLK
FXa, sequence (P00742 41-179 partner limits assumed): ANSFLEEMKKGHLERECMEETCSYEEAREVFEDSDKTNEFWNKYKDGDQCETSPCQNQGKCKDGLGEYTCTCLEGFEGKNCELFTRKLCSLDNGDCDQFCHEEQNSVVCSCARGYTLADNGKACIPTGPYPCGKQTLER
Experimental: Human serine protease enzyme Plasma Kallikrein, KLK1, FXa, Plasmin, Thrombin and Trypsin were assayed for enzymatic activity using an appropriate fluorogenic substrate at Km concentration, FXIa at fixed substrate concentration of 100 μM and various concentrations of the test compound.

Row | IC50 [1] [µM] | IC50 (FXa) [µM] | Structure (SMILES)
1 | 0.3 to 1 | > 40 | CN1CCc2ccc(N3CCc4c(C(=O)NCC5COC5)nn(-c5cccc(Cl)c5)c4C3=O)cc2C1=O [Example 1339, 1-(3-chlorophenyl)-6-(2-methyl-1-oxo-1,2,3,4-tetrahydroisoquinolin-7-yl)-N-(oxetan-3-ylmethyl)-7-oxo-4,5,6,7-tetrahydro-1H-pyrazolo[3,4-c]pyridine-3-carboxamide]
2 | 0.1 to 0.3 | 10 to 40 | Cc1cc(CNC(=O)c2nn(-c3cccc(Cl)c3)c3c(=O)n(-c4ccc5c(c4)C(=O)N(C)CC5)c(C)nc23)n[nH]1 [Example 3020, 1-(3-chlorophenyl)-5-methyl-6-(2-methyl-1-oxo-1,2,3,4-tetrahydroisoquinolin-7-yl)-N-((5-methyl-1H-pyrazol-3-yl)methyl)-7-oxo-6,7-dihydro-1H-pyrazolo[4,3-d]pyrimidine-3-carboxamide]
3 | 0.3 to 1 | > 40 | CN1CCc2ccc(N3CCc4c(C(=O)NC5CCC5)nn(-c5cccc(Cl)c5)c4C3=O)cc2C1=O [Example 1346, 1-(3-chlorophenyl)-N-cyclobutyl-6-(2-methyl-1-oxo-1,2,3,4-tetrahydroisoquinolin-7-yl)-7-oxo-4,5,6,7-tetrahydro-1H-pyrazolo[3,4-c]pyridine-3-carboxamide]
4 | 0.3 to 1 | > 4 | Cc1cc(CNC(=O)c2nn(-c3cccc(Cl)c3)c3c2CCN(c2ccc4c(c2)C(=O)N(CCO)[C@H](C)CO4)C3=O)nn1C [Example 1329, (R)-1-(3-chlorophenyl)-N-((1,5-dimethyl-1H-pyrazol-3-yl)methyl)-6-(4-(2-hydroxyethyl)-3-methyl-5-oxo-2,3,4,5-tetrahydrobenzo[f][1,4]oxazepin-7-yl)-7-oxo-4,5,6,7-tetrahydro-1H-pyrazolo[3,4-c]pyridine-3-carboxamide]
5 | 0.1 to 0.3 | 0.3 to 1 | N#Cc1nn(-c2cccc(Cl)c2)c2c(=O)n(-c3ccc4c(c3)CN(CCO)CC4)cnc12 [Example 3013, 1-(3-chlorophenyl)-6-(2-(2-hydroxyethyl)-1,2,3,4-tetrahydroisoquinolin-7-yl)-7-oxo-6,7-dihydro-1H-pyrazolo[4,3-d]pyrimidine-3-carbonitrile]
6 | 0.01 to 0.1 | > 40 | CCNC(=O)c1nn(-c2cc(C)cc(CN)c2)c2c1CCN(c1ccc3c(c1)C(=O)N(C)CC3)C2=O [Example 2024, 1-(3-(aminomethyl)-5-methylphenyl)-N-ethyl-6-(2-methyl-1-oxo-1,2,3,4-tetrahydroisoquinolin-7-yl)-7-oxo-4,5,6,7-tetrahydro-1H-pyrazolo[3,4-c]pyridine-3-carboxamide]
7 | 0.01 to 0.1 | 3 to 10 | Cc1cccc(-n2nc(C(=O)NCc3cnccc3C)c3c2C(=O)N(c2ccc4c(c2)CN(CCO)CC4)CC3)c1 [Example 2008, 6-(2-(2-hydroxyethyl)-1,2,3,4-tetrahydroisoquinolin-7-yl)-N-((4-methylpyridin-3-yl)methyl)-7-oxo-1-(m-tolyl)-4,5,6,7-tetrahydro-1H-pyrazolo[3,4-c]pyridine-3-carboxamide]
8 | 1 to 3 | 10 to 40 | C[C@@H](NC(=O)c1nn(-c2cccc(Cl)c2)c2c1CCN(c1ccc3c(c1)C(=O)N(C)CC3)C2=O)C(=O)O [Example 1387, (1-(3-chlorophenyl)-6-(2-methyl-1-oxo-1,2,3,4-tetrahydroisoquinolin-7-yl)-7-oxo-4,5,6,7-tetrahydro-1H-pyrazolo[3,4-c]pyridine-3-carbonyl)-D-alanine]
9 | 0.3 to 1 | 3 to 10 | Cc1cn(C)nc1C(=O)NCc1nn(-c2cccc(Cl)c2)c2c(=O)n(-c3ccc4c(c3)CN(CCO)CC4)c(C)nc12 [Example 3009, N-[[1-(3-Chlorophenyl)-6-[2-(2-hydroxyethyl)-3,4-dihydro-1H-isoquinolin-7-yl]-5-methyl-7-oxopyrazolo[4,3-d]pyrimidin-3-yl]methyl]-1,4-dimethylpyrazole-3-carboxamide]

Continued, compound first:

Row | Structure (SMILES) | IC50 [1] [µM] | IC50 (FXa) [µM]
10 | CC1(C)OCCC1NC(=O)c1nn(-c2cccc(Cl)c2)c2c1CCN(c1ccc3c(c1)CN(CCO)CC3)C2=O (stereo not shown) [Example 1112, 1-(3-chlorophenyl)-N-(2,2-dimethyltetrahydrofuran-3-yl)-6-(2-(2-hydroxyethyl)-1,2,3,4-tetrahydroisoquinolin-7-yl)-7-oxo-4,5,6,7-tetrahydro-1H-pyrazolo[3,4-c]pyridine-3-carboxamide] | 0.1 to 0.3 | > 40
11 | CC(=O)N1CCc2ccc(N3CCc4c(C(=O)NCc5cc(C)n(C)n5)nn(-c5cccc(Cl)c5)c4C3=O)cc21 [Example 1304, 6-(1-acetylindolin-6-yl)-1-(3-chlorophenyl)-N-((1,5-dimethyl-1H-pyrazol-3-yl)methyl)-7-oxo-4,5,6,7-tetrahydro-1H-pyrazolo[3,4-c]pyridine-3-carboxamide] | 0.3 to 1 | > 40
12 | O=C(NCC1CC1)c1nn(-c2cccc(Cl)c2)c2c1CCN(c1ccc3c(c1)C(=O)N(CC1CCOC1)CC3)C2=O (stereo not shown) [Example 1257, 1-(3-chlorophenyl)-N-(cyclopropylmethyl)-7-oxo-6-(1-oxo-2-((tetrahydrofuran-3-yl)methyl)-1,2,3,4-tetrahydroisoquinolin-7-yl)-4,5,6,7-tetrahydro-1H-pyrazolo[3,4-c]pyridine-3-carboxamide] | 0.3 to 1 | > 40
13 | C[C@@H](NC(=O)c1nn(-c2cccc(Cl)c2)c2c1CCN(c1ccc3c(c1)CN(CCO)CC3)C2=O)c1cccnc1 [Example 1145, (R)-1-(3-chlorophenyl)-6-(2-(2-hydroxyethyl)-1,2,3,4-tetrahydroisoquinolin-7-yl)-7-oxo-N-(1-(pyridin-3-yl)ethyl)-4,5,6,7-tetrahydro-1H-pyrazolo[3,4-c]pyridine-3-carboxamide] | 0.1 to 0.3 | 10 to 40
14 | Cc1ncccc1CNC(=O)c1nn(-c2cccc(Cl)c2)c2c1CCN(c1ccc3c(c1)CN(CCO)CC3)C2=O [Example 1111, 1-(3-chlorophenyl)-6-(2-(2-hydroxyethyl)-1,2,3,4-tetrahydroisoquinolin-7-yl)-N-((2-methylpyridin-3-yl)methyl)-7-oxo-4,5,6,7-tetrahydro-1H-pyrazolo[3,4-c]pyridine-3-carboxamide] | 0.01 to 0.1 | 10 to 40
15 | O=C(NCC1CC1)c1nn(-c2cccc(Cl)c2)c2c1CCN(c1cccc(N3CCCCC3=O)c1)C2=O [Example 1285, 1-(3-chlorophenyl)-N-(cyclopropylmethyl)-7-oxo-6-(3-(2-oxopiperidin-1-yl)phenyl)-4,5,6,7-tetrahydro-1H-pyrazolo[3,4-c]pyridine-3-carboxamide] | 1 to 3 | > 40
16 | O=C(NCc1cc(C2CC2)n[nH]1)c1nn(-c2cccc(Cl)c2)c2c1CCN(c1ccc3c(c1)CN(CCO)CC3)C2=O [Example 1127, 1-(3-chlorophenyl)-N-((3-cyclopropyl-1H-pyrazol-5-yl)methyl)-6-(2-(2-hydroxyethyl)-1,2,3,4-tetrahydroisoquinolin-7-yl)-7-oxo-4,5,6,7-tetrahydro-1H-pyrazolo[3,4-c]pyridine-3-carboxamide] | 0.01 to 0.1 | 10 to 40
17 | Cc1ccncc1CNC(=O)c1nn(-c2cccc(Cl)c2)c2c1CCN(c1cccc(CN3CCCCC3)c1)C2=O [Example 1177, 1-(3-chlorophenyl)-N-((4-methylpyridin-3-yl)methyl)-7-oxo-6-(3-(piperidin-1-ylmethyl)phenyl)-4,5,6,7-tetrahydro-1H-pyrazolo[3,4-c]pyridine-3-carboxamide] | 0.01 to 0.1 | > 40
18 | CN1CCc2ccc(N3CCc4c(C(=O)NCC5(CO)COC5)nn(-c5cccc(Cl)c5)c4C3=O)cc2C1=O [Example 1252, 1-(3-chlorophenyl)-N-((3-(hydroxymethyl)oxetan-3-yl)methyl)-6-(2-methyl-1-oxo-1,2,3,4-tetrahydroisoquinolin-7-yl)-7-oxo-4,5,6,7-tetrahydro-1H-pyrazolo[3,4-c]pyridine-3-carboxamide] | 0.3 to 1 | > 40
19 | CCN1CCOc2ccc(N3CCc4c(C(=O)NCc5cnccc5C)nn(-c5cccc(Cl)c5)c4C3=O)cc2C1=O [Example 1318, 1-(3-chlorophenyl)-6-(4-ethyl-5-oxo-2,3,4,5-tetrahydrobenzo[f][1,4]oxazepin-7-yl)-N-((4-methylpyridin-3-yl)methyl)-7-oxo-4,5,6,7-tetrahydro-1H-pyrazolo[3,4-c]pyridine-3-carboxamide] | 0.01 to 0.1 | 3 to 10
20 | CCN1CCc2c(F)cc(N3CCc4c(C(=O)NCC5CC5)nn(-c5cccc(Cl)c5)c4C3=O)cc2C1 [Example 1121, 1-(3-chlorophenyl)-N-(cyclopropylmethyl)-6-(2-ethyl-5-fluoro-1,2,3,4-tetrahydroisoquinolin-7-yl)-7-oxo-4,5,6,7-tetrahydro-1H-pyrazolo[3,4-c]pyridine-3-carboxamide] | 0.1 to 0.3 | > 40

Reference: patent publication US20260132132A1, “3A,4,5,6-TETRAHYDRO-1 H-PYRAZOLO[3,4-C]PYRIDIN-7(7AH)-ONE DERIVATIVES AS FACTOR XIIA INHIBITORS” (KALVISTA PHARMACEUTICALS LIMITED, priority 2022, published 2026)
